Results as given in US9969724B2, “Factor IXa inhibitors” (Merck Sharp & Dohme Corp., priority 2014, dated 2018).

Molecular target: human factor IXa (Homo sapiens (Human), UniProt P00740)
Experiment: Determination of Inhibitory Activity Against Factor IXa
Assay type: biochemical
Settings: Factor IXa enzyme assay human; read-out: FIXa IC50
Method: Inhibitory activity against factor IXa was tested using the substrate SPECTROFLUOR FIXa (american diagnostica inc.; 500 West Avenue, Stamford, Conn. 06902 USA; Pr. No. 299F) and human factor IXa (american diagnostica inc.; Pr. No. 449b). Test substances were dissolved in buffer A (50 mM α,α,α-tris(hydroxymethyl) methylamine (Tris), 100 mM NaCl, 5 mM CaCl2, 15% (v/v) ethylene glycol, pH 8.0) were mixed with factor IXa (0.1 μg/ml final concentration). The enzyme reaction was started by addition of SPECTROFLUOR FIXa (100 μM final concentration). After incubation for 60 minutes at room temperature, the reaction was stopped by the addition of 20% (v/v) acetic acid solution, and then the fluorescence value was measured (Excitation Wavelength: 355 nm, Emission Wavelength; 460 nm) in a microtiter plate reader (ARVO 1420 Multilabel Counter; PerkinElmer).
The IC50 was calculated from a dilution series of the test substance with the aid of the software, Symyx Assay Explorer (Symyx Technologies, Inc.).

human factor IXa, sequence (P00740 227-461): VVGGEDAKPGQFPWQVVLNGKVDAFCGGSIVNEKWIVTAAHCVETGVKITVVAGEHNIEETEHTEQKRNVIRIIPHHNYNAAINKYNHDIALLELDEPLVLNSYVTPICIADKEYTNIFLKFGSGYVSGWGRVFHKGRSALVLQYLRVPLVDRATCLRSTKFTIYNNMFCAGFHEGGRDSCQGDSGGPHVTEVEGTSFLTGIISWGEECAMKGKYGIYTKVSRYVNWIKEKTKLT
human factor IXa, sequence (P00740 47-191 partner): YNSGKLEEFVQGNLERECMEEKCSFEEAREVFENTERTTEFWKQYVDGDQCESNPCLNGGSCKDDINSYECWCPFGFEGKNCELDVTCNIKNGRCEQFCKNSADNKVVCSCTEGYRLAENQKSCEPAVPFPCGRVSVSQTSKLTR

SMILES | IC50
Nc1noc2c(N3CC[C@@H](NC(=O)c4ccc(-n5cnc6ncccc65)cc4Cl)C3)ncc(Cl)c12 [Example 32, (R)—N-(1-(3-Amino-4-chloroisoxazolo[5,4-c]pyridin-7-yl)pyrrolidin-3-yl)-2-chloro-4-(1H-imidazo[4,5-b]pyridin-1-yl)benzamide] | ≤ 100 nM
Nc1noc2c(N3CC[C@@H](NC(=O)c4ccc(-c5cnccn5)cc4Cl)C3)ncc(Cl)c12 [Example 33, (R)—N-(1-(3-Amino-4-chloroisoxazolo[5,4-c]pyridin-7-yl)pyrrolidin-3-yl)-2-chloro-4-(pyrazin-2-yl)benzamide] | ≤ 100 nM
Cc1ncn(-c2ccc(C(=O)N[C@@H]3CCN(c4cc(C#N)cc5c(N)noc45)C3)c(Cl)c2)n1 [Example 34, (R)—N-(1-(3-Amino-5-cyanobenzo[d]isoxazol-7-yl)pyrrolidin-3-yl)-2-chloro-4-(3-methyl-1H-1,2,4-triazol-1-yl)benzamide] | ≤ 100 nM
Nc1noc2c(N3CC[C@@H](NC(=O)c4ccc(-c5ccc(=O)n(CC(F)(F)F)c5)cc4Cl)C3)ncc(Cl)c12 [Example 35, (R)—N-(1-(3-Amino-4-chloroisoxazolo[5,4-c]pyridin-7-yl)pyrrolidin-3-yl)-2-chloro-4-(6-oxo-1-(2,2,2-trifluoroethyl)-1,6-dihydropyridin-3-yl)benzamide] | ≤ 100 nM
Nc1noc2c(N3CC[C@@H](NC(=O)c4ccc(-n5cnnc5)cc4)C3)ncc(Cl)c12 [Example 36, (R)—N-(1-(3-Amino-4-chloroisoxazolo[5,4-c]pyridin-7-yl)pyrrolidin-3-yl)-4-(4H-1,2,4-triazol-4-yl)benzamide] | ≤ 100 nM
Nc1noc2c(N3CC[C@@H](NC(=O)c4ccc(-c5ccc(=O)n(C(F)F)c5)cc4Cl)C3)ncc(Cl)c12 [Example 37, (R)—N-(1-(3-Amino-4-chloroisoxazolo[5,4-c]pyridin-7-yl)pyrrolidin-3-yl)-2-chloro-4-(1-(difluoromethyl)-6-oxo-1,6-dihydropyridin-3-yl)benzamide] | ≤ 100 nM
Nc1noc2c(N3CC[C@@H](NC(=O)c4ccc(-c5ccc6nncn6c5)cc4Cl)C3)ncc(Cl)c12 [Example 38, (R)-4-([1,2,4]Triazolo[4,3-a]pyridin-6-yl)-N-(1-(3-amino-4-chloroisoxazolo[5,4-c]pyridin-7-yl)pyrrolidin-3-yl)-2-chlorobenzamide] | ≤ 100 nM
Cc1ncn(-c2ccc(C(=O)N[C@@H]3CCN(c4nc(C(F)F)cc5c(N)noc45)C3)c(Cl)c2)n1 [Example 39, (R)—N-(1-(3-Amino-5-(difluoromethyl)isoxazolo[5,4-c]pyridin-7-yl)pyrrolidin-3-yl)-2-chloro-4-(3-methyl-1H-1,2,4-triazol-1-yl)benzamide] | 100 to 1000 nM
Cn1nc(-c2ccc(C(=O)N[C@@H]3CCN(c4ncc(Cl)c5c(N)noc45)C3)c(Cl)c2)ccc1=O [Example 40, (R)—N-(1-(3-Amino-4-chloroisoxazolo[5,4-c]pyridin-7-yl)pyrrolidin-3-yl)-2-chloro-4-(1-methyl-6-oxo-1,6-dihydropyridazin-3-yl)benzamide] | ≤ 100 nM
Cc1ncn(-c2ccc(C(=O)N[C@@H]3CCN(c4nc(C#N)cc5c(N)noc45)C3)c(Cl)c2)n1 [Example 41, (R)—N-(1-(3-Amino-5-cyanoisoxazolo[5,4-c]pyridin-7-yl)pyrrolidin-3-yl)-2-chloro-4-(3-methyl-1H-1,2,4-triazol-1-yl)benzamide] | ≤ 100 nM
Cc1cc2c(N)noc2c(N2CC[C@@H](NC(=O)c3ccc(-n4cc(CCO)nn4)cc3Cl)C2)n1 [Example 42, (R)—N-(1-(3-Amino-5-methylisoxazolo[5,4-c]pyridin-7-yl)pyrrolidin-3-yl)-2-chloro-4-(4-(2-hydroxyethyl)-1H-1,2,3-triazol-1-yl)benzamide] | ≤ 100 nM
Nc1noc2c(N3CC[C@@H](NC(=O)c4ccc(-n5cnnc5C(F)(F)F)cc4Cl)C3)ncc(Cl)c12 [Example 43, (R)—N-(1-(3-Amino-4-chloroisoxazolo[5,4-c]pyridin-7-yl)pyrrolidin-3-yl)-2-chloro-4-(3-(trifluoromethyl)-4H-1,2,4-triazol-4-yl)benzamide] | ≤ 100 nM
Cn1cc(-c2ccc(C(=O)N[C@@H]3CCN(c4ncc(Cl)c5c(N)noc45)C3)c(Cl)c2)cnc1=O [Example 44, (R)—N-(1-(3-Amino-4-chloroisoxazolo[5,4-c]pyridin-7-yl)pyrrolidin-3-yl)-2-chloro-4-(1-methyl-2-oxo-1,2-dihydropyrimidin-5-yl)benzamide] | ≤ 100 nM
Cn1ncn(-c2ccc(C(=O)N[C@@H]3CCN(c4ncc(Cl)c5c(N)noc45)C3)c(Cl)c2)c1=O [Example 45, (R)—N-(1-(3-Amino-4-chloroisoxazolo[5,4-c]pyridin-7-yl)pyrrolidin-3-yl)-2-chloro-4-(1-methyl-5-oxo-1,5-dihydro-4H-1,2,4-triazol-4-yl)benzamide] | ≤ 100 nM
Nc1noc2c(N3CC[C@@H](NC(=O)c4ccc(-n5cn[nH]c5=O)cc4Cl)C3)ncc(Cl)c12 [Example 46, (R)—N-(1-(3-Amino-4-chloroisoxazolo[5,4-c]pyridin-7-yl)pyrrolidin-3-yl)-2-chloro-4-(5-oxo-1,5-dihydro-4H-1,2,4-triazol-4-yl)benzamide] | ≤ 100 nM
Nc1noc2c(N3CC[C@@H](NC(=O)c4ccc(-n5cnn(CCO)c5=O)cc4Cl)C3)ncc(Cl)c12 [Example 47, (R)—N-(1-(3-Amino-4-chloroisoxazolo[5,4-c]pyridin-7-yl)pyrrolidin-3-yl)-2-chloro-4-(1-(2-hydroxyethyl)-5-oxo-1,5-dihydro-4H-1,2,4-triazol-4-yl)benzamide] | ≤ 100 nM
Nc1noc2c(N3CC[C@@H](NC(=O)c4ccc(-n5cnc6cncnc65)cc4Cl)C3)ncc(Cl)c12 [Example 48, (R)—N-(1-(3-Amino-4-chloroisoxazolo[5,4-c]pyridin-7-yl)pyrrolidin-3-yl)-2-chloro-4-(9H-purin-9-yl)benzamide] | ≤ 100 nM
Cc1cc2c(N)noc2c(N2CC[C@@H](NC(=O)c3c(Cl)cc(-n4cnn(C)c4=O)cc3Cl)C2)n1 [Example 49, (R)—N-(1-(3-Amino-5-methylisoxazolo[5,4-c]pyridin-7-yl)pyrrolidin-3-yl)-2,6-dichloro-4-(1-methyl-5-oxo-1,5-dihydro-4H-1,2,4-triazol-4-yl)benzamide] | ≤ 100 nM
Nc1noc2c(N3CC[C@@H](NC(=O)c4ccc(-n5cnn(CC(F)(F)F)c5=O)cc4Cl)C3)ncc(Cl)c12 [Example 50, (R)—N-(1-(3-Amino-4-chloroisoxazolo[5,4-c]pyridin-7-yl)pyrrolidin-3-yl)-2-chloro-4-(5-oxo-1-(2,2,2-trifluoroethyl)-1,5-dihydro-4H-1,2,4-triazol-4-yl)benzamide] | ≤ 100 nM
Nc1noc2c(N3CC[C@@H](NC(=O)c4ccc(-n5cnc6ncncc65)cc4Cl)C3)ncc(Cl)c12 [Example 51, (R)—N-(1-(3-Amino-4-chloroisoxazolo[5,4-c]pyridin-7-yl)pyrrolidin-3-yl)-2-chloro-4-(7H-purin-7-yl)benzamide] | ≤ 100 nM
Cc1ncn(-c2cnc(C(=O)N[C@@H]3CCN(c4ncc(Cl)c5c(N)noc45)C3)c(Cl)c2)n1 [Example 52, (R)—N-(1-(3-Amino-4-chloroisoxazolo[5,4-c]pyridin-7-yl)pyrrolidin-3-yl)-3-chloro-5-(3-methyl-1H-1,2,4-triazol-1-yl)picolinamide] | 100 to 1000 nM
Nc1noc2c(N3CC[C@@H](NC(=O)c4ccc(-c5ccnc(CO)c5)cc4Cl)C3)ccc(Cl)c12 [Example 53, (R)—N-(1-(3-Amino-4-chlorobenzo[d]isoxazol-7-yl)pyrrolidin-3-yl)-2-chloro-4-(2-(hydroxymethyl)pyridin-4-yl)benzamide] | ≤ 100 nM
